Experimental findings from ChEMBL document CHEMBL1201862, “PubChem BioAssay data set” (2004) are described below.

Test systems include OVCAR-4; T47D; SK-MEL-2; OVCAR-8; Hs-578T; SF-268; HCT-15; HT-29; SK-MEL-28; TK-10; NCI-H460; HCC 2998; M14; NCI-H522; MOLT-4; LOX IMVI; SF-295; MDA-MB-435; BT-549; 786-0.
What all share (test): growth of human tumour cells (NCI), 48 h

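Test compounds were applied to cells in 96-well plates for 48 hours at 5 doses. GI50: concentration for 50% inhibition of growth.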 Calls of active or inactive are those of the source. Cut-off read from the data, not from the text of the source: active = GI50 up to about 1.1 µM and inactive = higher.

Take `Cc1cccc(/C=N/NC(=S)Nc2ccc(Cl)cc2)n1`: the GI50 in the assay with OVCAR-4 is 4.78 µM (inactive); in the assay on T47D, 0.611 µM (active); in the assay on SK-MEL-2, 1.35 µM (inactive); in the assay with OVCAR-8, 3.74 µM (inactive); in the assay on Hs-578T it was 2.18 µM (inactive); with SF-268 it was 2.61 µM (inactive). The GI50 is 0.519 µM with HCT-15; 1.03 µM (active) in the assay on HT-29; 3.39 µM (inactive) in the assay on SK-MEL-28; 11.6 µM (inactive) in the assay on TK-10; 0.635 µM (active) in the assay on NCI-H460; 7.8 µM (inactive) with HCC 2998. The GI50 in the assay with M14 is 1.08 µM (active); with NCI-H522, 0.177 µM (active); in the assay with MOLT-4 it was 1.17 µM (inactive); with LOX IMVI it was 1.04 µM (active); in the assay with SF-295, 2.02 µM (inactive); in the assay with MDA-MB-435, 0.205 µM (active). Besides, the GI50 in the assay on BT-549 is 7.14 µM (inactive); with 786-0, 1.63 µM (inactive).

Turning to `CCN(CC)CCNC(=O)c1cc2cc(NC(=O)c3cc4cc(N)ccc4[nH]3)ccc2[nH]1`, the GI50 in the assay with OVCAR-4 was 8.05 µM (inactive); in the assay with T47D it was 20.3 µM (inactive); in the assay with SK-MEL-2, 29.1 µM (inactive); with OVCAR-8, 32.2 µM (inactive); with Hs-578T it was 35 µM (inactive); in the assay with SF-268, 31.4 µM (inactive). The GI50 in the assay with HCT-15 was greater than 100 µM; in the assay with HT-29, 30.6 µM (inactive); in the assay on SK-MEL-28, > 100 µM (inactive); in the assay on TK-10, > 100 µM (inactive); with NCI-H460 it was 34.6 µM (inactive); in the assay on HCC 2998, 17.1 µM (inactive). The GI50 was 26.1 µM (inactive) in the assay on M14; 19.1 µM (inactive) in the assay on NCI-H522; 13.2 µM (inactive) in the assay on MOLT-4; > 100 µM (inactive) with SF-295; 17.7 µM (inactive) in the assay with MDA-MB-435; 28.1 µM (inactive) with BT-549. In the assay with 786-0, the GI50 is 35.8 µM (inactive).

`CSc1c2c(C)n[nH]c2nn1-c1ccccc1`: the GI50 is 53.7 µM (inactive) with OVCAR-4; 85.1 µM (inactive) with T47D; > 100 µM (inactive) in the assay with SK-MEL-2; 27.4 µM (inactive) in the assay with OVCAR-8; > 100 µM (inactive) with Hs-578T; 57.8 µM (inactive) in the assay with SF-268. The GI50 with HCT-15 is 37.2 µM; with HT-29, 36 µM (inactive); in the assay on SK-MEL-28, > 100 µM (inactive); with TK-10, > 100 µM (inactive); with NCI-H460, > 100 µM (inactive); in the assay on HCC 2998, 57.8 µM (inactive). Moreover, the GI50 is 81.7 µM (inactive) with M14; 5.01 µM (inactive) in the assay with NCI-H522; 42.6 µM (inactive) with MOLT-4; 24.1 µM (inactive) in the assay with LOX IMVI; > 100 µM (inactive) in the assay on MDA-MB-435; 80 µM (inactive) with BT-549. Also, the GI50 in the assay with 786-0 is 66.8 µM (inactive).

Turning to `CN(C)CCCSc1nc2ccccc2[nH]1`, the GI50 in the assay on OVCAR-4, in the assay on T47D, in the assay on SK-MEL-2, in the assay on OVCAR-8, with Hs-578T and with SF-268 was > 100 µM (inactive) throughout. Further, the GI50 in the assay on HCT-15 was greater than 100 µM; in the assay on HT-29, > 100 µM (inactive); in the assay with SK-MEL-28, > 100 µM (inactive); with TK-10, > 100 µM (inactive); with NCI-H460 it was > 100 µM (inactive); in the assay on HCC 2998, > 100 µM (inactive). Besides, the GI50 with M14, in the assay with NCI-H522, in the assay with LOX IMVI, in the assay with SF-295, in the assay with MDA-MB-435 and in the assay with BT-549 was > 100 µM (inactive) throughout. The GI50 in the assay on 786-0 was > 100 µM (inactive).

Consider `Cn1c(SCc2ccc([N+](=O)[O-])cc2)nnc1C12CC3CC(CC(C3)C1)C2`, for which the GI50 in the assay on OVCAR-4, in the assay on T47D, with SK-MEL-2, in the assay on OVCAR-8, in the assay with Hs-578T and in the assay with SF-268 was > 10 µM (inactive) in each case. For the same compound, the GI50 was greater than 10 µM in the assay with HCT-15; > 10 µM (inactive) with HT-29; > 10 µM (inactive) in the assay on SK-MEL-28; > 10 µM (inactive) in the assay with NCI-H460; > 10 µM (inactive) with HCC 2998; > 10 µM (inactive) in the assay with M14. Besides, the GI50 with NCI-H522, in the assay with MOLT-4, in the assay with LOX IMVI, with SF-295, in the assay with MDA-MB-435 and in the assay with BT-549 was > 10 µM (inactive) throughout. In addition, the GI50 with 786-0 was > 10 µM (inactive).

Consider `Cc1ccc(S(=O)(=O)N/N=C2/CC3CCC4CC2CC34)cc1` (stereo not given), for which the GI50 was 81.1 µM (inactive) with T47D; > 100 µM (inactive) with SK-MEL-2; > 100 µM (inactive) in the assay with OVCAR-8; 88.3 µM (inactive) with Hs-578T; > 100 µM (inactive) in the assay on SF-268; greater than 100 µM in the assay with HCT-15. In addition, the GI50 in the assay on HT-29, in the assay with SK-MEL-28, in the assay with TK-10, with NCI-H460, with HCC 2998 and with M14 was > 100 µM (inactive) each time. The GI50 in the assay on NCI-H522, in the assay with MOLT-4, with LOX IMVI, in the assay with SF-295, with MDA-MB-435 and with BT-549 was > 100 µM (inactive) in each case. Moreover, the GI50 in the assay on 786-0 is > 100 µM (inactive).

For `c1ccc(-c2sc(-c3cccs3)cc2Cc2cccs2)cc1`, the GI50 is > 10 µM (inactive) in the assay with OVCAR-4; > 10 µM (inactive) with T47D; > 10 µM (inactive) in the assay on OVCAR-8; > 10 µM (inactive) in the assay on Hs-578T; > 10 µM (inactive) in the assay on SF-268; greater than 10 µM in the assay with HCT-15. In addition, the GI50 with HT-29, with SK-MEL-28, in the assay on TK-10, in the assay with NCI-H460, in the assay with HCC 2998 and in the assay with M14 was > 10 µM (inactive) in each case. Moreover, the GI50 with NCI-H522, in the assay on MOLT-4, with LOX IMVI, in the assay on SF-295, with MDA-MB-435 and with BT-549 was > 10 µM (inactive) throughout. Further, the GI50 with 786-0 is > 10 µM (inactive).

With `O=CC1C(Cl)=Nc2nc3ccccc3n2C1c1ccccc1` (stereo not given), the GI50 is 15.2 µM (inactive) in the assay on OVCAR-4; 17.1 µM (inactive) in the assay on T47D; 12 µM (inactive) in the assay with SK-MEL-2; 21.4 µM (inactive) in the assay on OVCAR-8; 0.741 µM (active) in the assay with Hs-578T; 16.8 µM (inactive) with SF-268. For the same compound, the GI50 in the assay with HCT-15 was 16.2 µM; in the assay on HT-29 it was 19.1 µM (inactive); in the assay with SK-MEL-28, 14.3 µM (inactive); with TK-10, 26.3 µM (inactive); in the assay with NCI-H460, 55.2 µM (inactive); in the assay with HCC 2998 it was 18.2 µM (inactive). The GI50 was 23.7 µM (inactive) in the assay with M14; 14.3 µM (inactive) in the assay with NCI-H522; 15.5 µM (inactive) with LOX IMVI; > 100 µM (inactive) with SF-295; 38.5 µM (inactive) in the assay with MDA-MB-435; 15.2 µM (inactive) with BT-549. The GI50 in the assay with 786-0 was 15.6 µM (inactive).

With `C=C[C@@]1(C)CC[C@@H]2[C@@]3(C1)O[C@H]3CC1[C@](C)(C(=O)OC)CCC[C@@]12C` (stereo not given in full), the GI50 in the assay on OVCAR-4 is 38.5 µM (inactive); in the assay on T47D, 20.7 µM (inactive); with SK-MEL-2 it was 18.9 µM (inactive); in the assay with OVCAR-8, 21.3 µM (inactive); in the assay on Hs-578T it was 20 µM (inactive); with SF-268, 20.2 µM (inactive). Also, the GI50 in the assay with HCT-15 is 19.5 µM; in the assay with HT-29, 14.1 µM (inactive); with SK-MEL-28 it was 21.1 µM (inactive); in the assay on TK-10, 19.1 µM (inactive); in the assay with NCI-H460, 16.4 µM (inactive); with HCC 2998, 17.3 µM (inactive). In addition, the GI50 in the assay with M14 was 19.6 µM (inactive); with NCI-H522 it was 16.9 µM (inactive); with MOLT-4, 20 µM (inactive); in the assay with SF-295 it was 15 µM (inactive); with MDA-MB-435, 34 µM (inactive); with BT-549, 25.5 µM (inactive). Further, in the assay on 786-0, the GI50 was 20.3 µM (inactive).

With `O=c1oc2ccccc2c(Nc2ccc3c(c2)S(=O)(=O)c2ccccc2O3)c1[N+](=O)[O-]`, the GI50 in the assay on OVCAR-4 was 20 µM (inactive); in the assay with T47D, 18.7 µM (inactive); in the assay on SK-MEL-2 it was 19.3 µM (inactive); in the assay with OVCAR-8 it was 25.2 µM (inactive); in the assay with Hs-578T, 36.7 µM (inactive); in the assay on SF-268 it was 33.8 µM (inactive). For the same compound, the GI50 in the assay on HCT-15 is 25.8 µM; with HT-29 it was 34.5 µM (inactive); with SK-MEL-28, 18.1 µM (inactive); in the assay with TK-10, 22.4 µM (inactive); in the assay on NCI-H460, 25.5 µM (inactive); in the assay with HCC 2998, 18.5 µM (inactive). The GI50 in the assay on M14 is 26.2 µM (inactive); in the assay on NCI-H522, 19.7 µM (inactive); in the assay on LOX IMVI it was 27 µM (inactive); with SF-295, 24.8 µM (inactive); in the assay on MDA-MB-435, 23.4 µM (inactive); in the assay with BT-549, 24.2 µM (inactive). Further, the GI50 with 786-0 was 21.1 µM (inactive).

For `O=[N+]([O-])C(=C(N1CCOCC1)N1CCOCC1)/C(Cl)=C(\Cl)[N+](=O)[O-]`, the GI50 in the assay with OVCAR-4 was 16 µM (inactive); in the assay with T47D, 1.96 µM (inactive); with SK-MEL-2, 15.8 µM (inactive); in the assay with Hs-578T it was 1.18 µM (inactive); with SF-268, 10.6 µM (inactive); in the assay on HCT-15, 2.7 µM. Besides, the GI50 with HT-29 is 4.1 µM (inactive); with SK-MEL-28, 14.3 µM (inactive); with TK-10, 1.99 µM (inactive); in the assay with NCI-H460 it was 25.2 µM (inactive); in the assay with HCC 2998, 20.4 µM (inactive); in the assay with M14 it was 6.35 µM (inactive). For the same compound, the GI50 was 1.48 µM (inactive) with NCI-H522; 17.2 µM (inactive) in the assay with MOLT-4; 2.15 µM (inactive) in the assay with LOX IMVI; 18 µM (inactive) in the assay with SF-295; 10.3 µM (inactive) with MDA-MB-435; 4.59 µM (inactive) with BT-549. In the assay on 786-0, the GI50 is 3.69 µM (inactive).
